# Laboratory results taken from patent US20130045991A1, “NEUROPROTECTIVE MODULATION OF NMDA RECEPTOR SUBTYPE ACTIVITIES” (THE UNIVERSITY OF BRITISH COLUMBIA, priority 2005, published 2013).
# How the values were obtained:
# cortical neurons [1] = assay: Staurosporine (STS)-induced neuronal apoptosis; format: cell-based, rat; settings: NMDA 200 μM, 5 min, Ro 25-6981 0.5 μM present
# Source text: In alternative aspects of the invention, we have achieved specific activation of NR2A-containing receptors using two different strategies. First, we examined the effect of selective activation of extrasynaptic NR2A-containing receptor activation on neuronal appopotosis induced by staurosporine (STS), a potent apoptosis inducer (Budd et al., 2000). […] The NMDA-induced neuronal protection was indeed mediated by NR2A-containing receptors as it was prevented by co-application of NVP-AAM077 (p<0.001 compared with STS alone).
# Dissociated cultures of cortical neurons were prepared from 18-day Sprague-Dawley rat embryos as described previously (Mielke et al., 2005). To obtain mixed cortical cultures enriched with neurons, uridine (10 μM) and 5-Fluor-2′-deoxyuridine (10 μM) were added to the culture medium at 3 DIV and maintained for 48 h, to inhibit non-neuronal cell proliferation, before the cultures were shifted back to the normal culture medium. Mature neurons (11-14 DIV) were used for experiments. To induce neuronal apoptosis, cortical cultures were stimulated with NMDA (50 μM) and glycine (10 μM) for 20 min, or STS (100 nM) for 1 h in Mg2+-free extracellular solution (ECS) containing (mM): 25 HEPES acid, 140 NaCl, 33 glucose, 5.4 KCl and 1.3 CaCl2, with pH 7.35 and osmolarity 320-330 mOsm. […]
# To visualize injured neurons, Hoechst-33342 (10 μg/ml) was added to the culture medium 20 h after treatments and incubated for 45 min at 37 °C. Images were taken with a Leica DMIRE2 fluorescence microscope. Quantitative assessment of neuronal apoptosis was performed 20 h following treatments using a Cell Death Detection ELISAPLUS Kit (Roche Applied Science). Absorbance readings were determined using a spectrophotometric microplate reader. […] Data are expressed as the difference in apoptosis relative to control and are expressed as a percentage.
# [2] = system: acute ischaemic stroke in the carotid artery territory; settings: sublingual 1.0-2.0 g/day started within 6 h after onset; cited from earlier work
# cortical neurons [3] = assay: Glycine pretreatment before NMDA-induced neuronal apoptosis; format: cell-based, rat
# Procedure: (§1) Mature neurons (11-14 DIV) were used for experiments.
# (§2) To visualize injured neurons, Hoechst-33342 (10 μg/ml) was added to the culture medium 20 h after treatments and incubated for 45 min at 37 °C. Images were taken with a Leica DMIRE2 fluorescence microscope. Quantitative assessment of neuronal apoptosis was performed 20 h following treatments using a Cell Death Detection […] Kit (Roche Applied Science). Absorbance readings were determined using a spectrophotometric microplate reader. Data analyses were carried out according to the manufacturer's instructions. Data are expressed as the difference in apoptosis relative to control and are expressed as a percentage.
# [4] = system: middle cerebral artery occlusion (MCAo); assay: MCAo focal ischemic stroke model, post-ischemic treatment; format: in vivo, rat
# Source text: In some clinical settings, it is desirable to implement therapy after the onset of neuronal injury, such as stroke or other ischemic events.
# Transient cerebral focal ischemia was produced by middle cerebral artery occlusion (MCAo) as described (Aarts et al., 2002; Bederson et al., 1986; Longa et al., 1989). Briefly, male Sprague-Dawley rats (Charles River Laboratories) weighing ˜300 g were anesthetized and MCAo was achieved by introducing a 3-0 monofilament suture into the MCA via the internal carotid artery. Body temperature was maintained at 37.0±0.5° C., and blood pressure and blood gases were monitored during the experiments. Animals were sacrificed 24 h following MCAo onset. Cerebral infarction was analyzed using brain sections stained with hematoxylin and eosin (H & E) or 2,3,5-triphenyltetrazolium chloride (TTC). 10 min before the animals were sacrificed, two tests, the postural reflex test to examine upper body posture (Bederson et al., 1986) and the forelimb placing test to examine sensorimotor integration in forelimb placing responses to visual, tactile, and proprioceptive stimuli (De Ryck et al., 1989), were performed to grade neurological function on a scale of 0 to 12 (0=normal, 12=worst). In the pretreatment study, a single bolus of drugs (NR2A-specific antagonist NVP-AAM077 (2.4 mg/kg) or NR2B specific antagonist Ro 25-6981 (6 mg/kg) or vehicle (saline)) was infused intravenously 30 min before a 1-h MCAo. For post-treatment experiments, animals were subjected to a 1.5-h MCAo and drug treatments (glycine, 800 mg/kg; NVP-AAM077 and Ro 25-6981 at the same doses as in the pretreatment study) were then given via intraperitoneal injection (i.p.) 3 h after reperfusion (4.5 h after the onset of MCAo).
# The activating effect on NR2A-containing receptors was mimicked with the application of the NMDA receptor co-agonist glycine in the presence of an […] NR2B antagonist. Glycine by itself potentiates the function of NMDA receptors that are activated by endogenously released glutamate from presynaptic terminals both in vitro and in vivo (Johnson et al., 1987; Lu et al., 2001; De et al., 2000).
# [5] = system: NR1C and NR2B receptors over NR1C+NR2A receptors; settings: cited from earlier work
# permanent focal ischemia = settings: in vivo; cited from earlier work
# synaptic NMDA receptors = assay: mEPSC recording, NMDA receptor-mediated component; format: cell-based, rat
# cortical neurons [6] = assay: NMDA-mediated excitotoxicity: neuronal apoptosis in cortical cultures; format: cell-based, rat; settings: 50 μM NMDA plus 10 μM glycine 20 min, assayed 20 h after; APV 50 μM, Ro25-6981 0.5 μM, NVP-AAM077 0.4 μM
# Procedure: as §1, §2
# [7] = system: AMPA subtype glutamate receptor; assay: mEPSC recording, fast AMPA receptor-mediated component; format: cell-based, rat; settings: -60 mV, zero added Mg2+
structure (smiles),measurement,setting,value
"CN[C@H](CC(=O)O)C(=O)O [NMDA, N-methyl-D-aspartate]",effect on STS-induced apoptosis,"cortical neurons [1]; STS 100 nM, 1 h",significantly reduced STS-induced apoptosis
same,neuronal apoptosis on its own,cortical neurons [1]; synaptic receptors blocked (MK-801 + bicuculline),did not increase neuronal apoptosis on its own
"NCC(=O)O [glycine, Glycine]",clinical effects,[2],favourable clinical effects
same,effect of pretreatment on NMDA-induced neuronal apoptosis,cortical neurons [3],significantly reduced NMDA-induced neuronal apoptosis
same,neuroprotection / total infarct volume compared with MCAo alone,"[4]; rat, in vivo",remarkable reduction in total infarct volume
"Cc1ccc(CC2(O)CCN(CCOc3ccc(O)cc3)CC2)cc1 [Ro 63-1908, 1-[2-(4-hydroxy-phenoxy)-ethyl]-4-(4-methyl-benzyl)-piperidin-4-ol]",selectivity for the NR1C and NR2B receptors over NR1C+NR2A receptors,[5],"20,000 fold"
same,neuroprotective effect against cortical damage,permanent focal ischemia,dose-related neuroprotective effect
N[C@@H](CCCP(=O)(O)O)C(=O)O [APV],effect on slow NMDA receptor-mediated component of mEPSCs,"synaptic NMDA receptors; -60 mV, zero added Mg2+, APV 50 μM, Ro 25-6981 0.5 μM",fully blocked
same,effect on NMDA-induced neuronal apoptosis/damage,cortical neurons [6],fully blocked
"O=C1N=c2cc([N+](=O)[O-])c([N+](=O)[O-])cc2=NC1=O [DNQX, 6,7-dinitroquinoxaline-2,3-dione]",effect on fast AMPA receptor-mediated component of mEPSCs,[7],completely blocked
C[C@]12N[C@H](Cc3ccccc31)c1ccccc12 [MK-801],blockade of synaptic NMDA receptors (APV-sensitive component of mEPSCs),"synaptic NMDA receptors; MK-801 10 μM co-applied with bicuculline 50 μM, within 10 min",complete blockade
same,effect of co-administration on the glycine effect (infarct volume reduction),[4]; co-administered with glycine 800 mg/kg 4.5 h after stroke onset,virtually completely abolished
same,neuroprotection / total infarct volume compared with MCAo alone,"[4]; given 3 h after 1.5-h MCAo (4.5 h after stroke onset), MK801 1 mg/Kg, glycine 800 mg/Kg, Ro 25-6981 6 mg/Kg",did not provide any noticeable neuroprotection
